Biological target: T1, Solute carrier family 22 member 12 (Homo sapiens, UniProt Q96S37)
T1 sequence (Q96S37 whole entry): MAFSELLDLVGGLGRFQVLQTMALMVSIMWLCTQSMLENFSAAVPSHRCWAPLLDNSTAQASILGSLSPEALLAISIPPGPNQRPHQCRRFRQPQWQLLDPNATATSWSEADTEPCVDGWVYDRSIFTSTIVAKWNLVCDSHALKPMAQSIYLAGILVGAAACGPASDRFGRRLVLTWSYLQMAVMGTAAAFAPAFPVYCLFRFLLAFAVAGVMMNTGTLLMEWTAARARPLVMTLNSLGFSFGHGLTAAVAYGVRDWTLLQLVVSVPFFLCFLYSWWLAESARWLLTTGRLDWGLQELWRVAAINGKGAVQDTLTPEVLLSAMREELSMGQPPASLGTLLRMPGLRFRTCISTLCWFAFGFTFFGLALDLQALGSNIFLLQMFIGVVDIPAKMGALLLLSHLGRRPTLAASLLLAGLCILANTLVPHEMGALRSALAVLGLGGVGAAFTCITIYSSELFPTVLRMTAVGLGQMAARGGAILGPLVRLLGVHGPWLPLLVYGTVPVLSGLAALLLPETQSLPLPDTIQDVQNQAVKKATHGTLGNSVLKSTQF
Assay: Inhibition Assay: It was introduced human URAT1 full-length cDNA into an expression vector pcDNA5 / FRT / V5-His TOPO (registered trademark) (Invitrogen). The resulting expression plasmids, the liposome method using Lipofectamine LTX (Invitrogen), Chinese hamster ovary cells (hereinafter, referred to as CHO cells) was introduced into, by culturing in a selective medium containing hygromycin and human URAT1 stable The expression cell line we were prepared.Human URAT1 expression CHO cells, 10% fetal calf serum, D-MEM / F-12 containing the hygromycin (1: 1) using a mixed medium, 37 C, were cultured in the presence of 5% CO2. Cells were seeded in 96-well plates (Corning Incorporated) in 0.8x10E+5 cells / well, were subjected to the following uric acid transport inhibition test after 24 hours.After removal of the medium by aspiration, sodium gluconate of cells 125mM, potassium gluconate of 4.8mM, potassium dihydrogen phosphate of 1.2mM, magnesium sulfate of 1.2mM, calcium gluconate of 1.3mM, 5. washed once.
Assay type: cell-based

SMILES	IC50
Cc1nn(Cc2c(Cl)cccc2Cl)c2cc(C(C)C(=O)O)ccc12 (configuration not stated)	0.075 µM
Cc1nn(Cc2c(Cl)cccc2Cl)c2cc(C(C)(C)C(=O)O)ccc12	0.098 µM

Source: ChEMBL document CHEMBL3639104, “Ring-fused compound” (2015)
